Source: patent US8288142B2, “Hyaluronidase and method of use thereof” (priority 2007, dated 2012)
Like-named read-outs stand apart in the source and are kept apart here.

Assays:
microbial hyaluronidase = type: biochemical, Streptomyces actinocidus; details: for inhibition of hyaluronidase activity / effect on hyaluronidase: 10^−2 M; for inhibition of activity of microbial hyaluronidase: 10^−3 M; for effect on activity of microbial hyaluronidase: 10^−3-10^−4 M
[1] = test system: hyaluronidase derived from Stm. Hyalurolyticus; details: 10^−3-10^−4 M; Ohya 1970; cited from earlier work

Row | SMILES | Hyaluronidase activity (%) (microbial hyaluronidase; reagent or salt 10^−2 M) | Hyaluronidase activity (%) (microbial hyaluronidase; reagent or salt 10^−3 M) | Hyaluronidase activity (%) (microbial hyaluronidase; reagent or salt 10^−4 M) | Hyaluronidase activity (%) (microbial hyaluronidase) | inhibition of hyaluronidase activity (microbial hyaluronidase) [%] | inhibition of activity of microbial hyaluronidase (microbial hyaluronidase) [%] | effect on hyaluronidase derived from Stm. Hyalurolyticus [1] | effect on activity of microbial hyaluronidase (microbial hyaluronidase) | effect on hyaluronidase (microbial hyaluronidase)
1 | O=[N+]([O-])[O-].[Ag+] [AgNO3] | 100 | 100 | 100 | – | – | – | – | – | –
2 | [Ca+2].[Cl-].[Cl-] [CaCl2] | 100 | 100 | 100 | – | – | – | – | – | –
3 | [Cl-].[Cl-].[Co+2] [CoCl2] | – | – | – | 100 | – | – | – | – | –
4 | O=S(=O)([O-])[O-].[Cu+2] [CuSO4] | 44 | 85 | 100 | – | 56 | 25 | – | – | –
5 | O=C(O)CN(CCN(CC(=O)O)CC(=O)O)CC(=O)O [EDTA] | 95 | 100 | 100 | – | – | – | – | – | –
6 | [Cl][Fe]([Cl])[Cl] [FeCl3] | 35 | 85 | 100 | – | 65 | 25 | – | – | –
7 | O=S(=O)([O-])[O-].[Fe+2] [FeSO4] | 100 | 100 | 100 | – | – | – | – | – | –
8 | [Hg+2] [Hg^2+] | – | – | – | – | – | – | inhibit | – | –
9 | II [I2] | 0 | 12 | – | – | – | – | – | – | –
10 | [Cl-].[K+] [KCl] | 100 | 100 | 100 | – | – | – | – | – | –
11 | O=S(=O)([O-])[O-].[Li+].[Li+] [LiSO4] | 100 | 100 | 100 | – | – | – | – | – | –
12 | [Cl][Mn][Cl] [MnCl2] | 100 | 100 | 100 | – | – | – | inhibit | did not affect | –
13 | [N-]=[N+]=[N-].[Na+] [Na3N] | 100 | 100 | 100 | – | – | – | – | – | –
14 | [Cl-].[Na+] [NaCl] | 100 | 100 | 100 | – | – | – | – | – | –
15 | O=S(=O)([O-])[O-].[Zn+2] [ZnSO4] | 100 | 100 | 100 | – | – | – | – | – | –
16 | OCCS [beta-Mercaptoethanol] | 0 | 65 | 100 | – | – | – | – | – | completely inhibited
17 | O=C(O)c1cc[c]([Hg][Cl])cc1 [para-Chloromercury-benzoate] | 80 | 100 | 100 | – | – | – | inhibit | did not affect | partially inhibited
